Values quoted from earlier work in patent publication US12404348B2, “Bifunctional chimeric molecules for labeling of kinases with target binding moieties and methods of use thereof” (The Brigham and Women's Hospital, Inc., priority 2021, dated 2025).
Like-named read-outs stand apart in the source and are kept apart here. One block for each compound: values may come before it.

Legend:
[1] = target: T1, PKCl (Homo sapiens, UniProt P41743)
T1 sequence (P41743 1-596): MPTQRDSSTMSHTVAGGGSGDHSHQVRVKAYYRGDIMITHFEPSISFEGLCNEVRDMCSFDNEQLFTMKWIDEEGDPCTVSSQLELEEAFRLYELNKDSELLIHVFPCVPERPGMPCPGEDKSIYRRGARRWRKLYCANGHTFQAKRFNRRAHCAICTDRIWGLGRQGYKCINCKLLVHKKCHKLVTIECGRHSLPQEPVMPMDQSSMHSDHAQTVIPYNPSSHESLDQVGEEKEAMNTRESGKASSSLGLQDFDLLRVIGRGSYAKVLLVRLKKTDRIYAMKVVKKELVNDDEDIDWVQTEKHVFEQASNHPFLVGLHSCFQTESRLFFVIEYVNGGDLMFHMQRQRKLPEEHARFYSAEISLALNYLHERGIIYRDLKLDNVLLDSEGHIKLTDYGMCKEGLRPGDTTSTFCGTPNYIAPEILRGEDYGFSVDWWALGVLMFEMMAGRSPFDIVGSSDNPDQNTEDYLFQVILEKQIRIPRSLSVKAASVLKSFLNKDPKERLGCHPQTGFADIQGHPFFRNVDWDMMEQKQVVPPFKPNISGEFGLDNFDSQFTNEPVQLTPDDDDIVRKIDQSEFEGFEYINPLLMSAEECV

[2] = test system: NF-κB Pathway; details: U(37 cells)
[3] = target: T2, Recombinant PKCζ (Homo sapiens, UniProt Q05513)
T2 sequence (Q05513 1-592): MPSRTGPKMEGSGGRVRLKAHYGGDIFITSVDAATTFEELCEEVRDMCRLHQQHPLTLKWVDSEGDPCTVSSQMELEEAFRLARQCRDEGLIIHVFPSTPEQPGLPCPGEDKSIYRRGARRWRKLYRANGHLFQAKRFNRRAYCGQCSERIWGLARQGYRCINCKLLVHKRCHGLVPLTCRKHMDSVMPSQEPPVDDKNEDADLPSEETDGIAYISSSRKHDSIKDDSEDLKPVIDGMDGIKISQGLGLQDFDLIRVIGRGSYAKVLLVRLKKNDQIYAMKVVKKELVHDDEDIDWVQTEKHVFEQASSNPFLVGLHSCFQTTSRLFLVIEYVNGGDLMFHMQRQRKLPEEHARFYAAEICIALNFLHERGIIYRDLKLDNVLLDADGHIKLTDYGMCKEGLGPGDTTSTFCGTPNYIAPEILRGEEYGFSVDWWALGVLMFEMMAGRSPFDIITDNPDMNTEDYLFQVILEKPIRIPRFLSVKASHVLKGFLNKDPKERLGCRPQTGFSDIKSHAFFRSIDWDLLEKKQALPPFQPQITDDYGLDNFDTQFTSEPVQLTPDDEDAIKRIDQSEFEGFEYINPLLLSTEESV

[4] = target: T3, AKT1 (Homo sapiens, UniProt P31749)
[5] = not given; remark: listed apart in the source
[6] = target: T4, PDK1 (Homo sapiens, UniProt O15530)
T4 sequence (O15530 1-556): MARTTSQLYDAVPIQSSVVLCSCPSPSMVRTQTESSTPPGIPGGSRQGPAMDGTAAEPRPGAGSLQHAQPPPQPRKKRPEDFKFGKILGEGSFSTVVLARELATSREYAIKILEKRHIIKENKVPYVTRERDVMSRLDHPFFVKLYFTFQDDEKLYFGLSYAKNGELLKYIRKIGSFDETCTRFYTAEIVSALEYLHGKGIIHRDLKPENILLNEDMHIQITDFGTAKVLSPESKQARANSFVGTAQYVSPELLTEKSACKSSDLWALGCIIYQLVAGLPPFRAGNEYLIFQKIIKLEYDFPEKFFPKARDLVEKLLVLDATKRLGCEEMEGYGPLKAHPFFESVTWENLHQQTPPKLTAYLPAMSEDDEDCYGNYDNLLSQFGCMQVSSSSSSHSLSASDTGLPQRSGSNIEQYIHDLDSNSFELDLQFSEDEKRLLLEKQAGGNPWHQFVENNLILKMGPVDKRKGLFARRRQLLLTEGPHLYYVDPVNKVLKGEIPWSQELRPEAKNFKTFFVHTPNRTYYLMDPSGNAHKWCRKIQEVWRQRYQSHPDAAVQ

[7] = target: T4, PDK1; details: for Kd: read-out: ITC Kd
[8] = target: T3, AKT1; remark: listed apart in the source

T3 sequence (P31749 whole entry): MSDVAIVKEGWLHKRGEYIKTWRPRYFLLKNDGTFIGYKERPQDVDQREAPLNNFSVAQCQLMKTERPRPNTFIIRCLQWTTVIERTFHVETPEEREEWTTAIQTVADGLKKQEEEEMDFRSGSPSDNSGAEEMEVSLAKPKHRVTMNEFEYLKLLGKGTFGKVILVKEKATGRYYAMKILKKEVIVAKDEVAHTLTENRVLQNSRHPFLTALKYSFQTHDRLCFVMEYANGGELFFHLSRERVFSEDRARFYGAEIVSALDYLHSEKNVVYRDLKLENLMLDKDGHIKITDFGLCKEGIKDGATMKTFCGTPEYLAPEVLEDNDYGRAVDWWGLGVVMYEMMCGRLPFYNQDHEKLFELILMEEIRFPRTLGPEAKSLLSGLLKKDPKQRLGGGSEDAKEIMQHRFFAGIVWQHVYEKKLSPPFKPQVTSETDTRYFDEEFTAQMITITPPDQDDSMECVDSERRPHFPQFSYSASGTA

SMILES: Oc1ccc(C2CC(c3ccccc3O)=NN2c2ccc(Cl)cc2)cc1O (stereo not drawn) [4g]
PKCl % inhibn at 20 μM [1]: 44.1%

SMILES: O=C(NOC[C@@H](O)CO)c1ccc(F)c(F)c1Nc1ccc(I)cc1F [Compound 35]
Sol (pH 6.5): 255, μg/mL

SMILES: CC(C)(C)C1=NN(c2ccc(C(=O)O)cc2)C(c2ccc(O)cc2)C1 (stereo not drawn) [1g]
NF-κB reporter gene assay % inhibin at 5 μM [2]: 40.7% | cell-free assay % inhibin at 62.5 μM [3]: 47.9%

SMILES: COc1ccccc1Cn1c(-c2cccnc2N)nc2cccnc21 [Compound 3c]
Akt1 ΔTm [4]: no shift

SMILES: CC(=O)NC1=NN(c2ccc(Cl)c(Cl)c2)CC1C (stereo not drawn) [Compound 45]
In Vivo Plasma Concentration ([5]; 40 min): 5540 ± 233 ng/mL | In Vivo Plasma Concentration ([5]; 180 min): 2540 ± 143 ng/mL

SMILES: Cc1cccc(N2N=C(C(C)(C)C)CC2c2ccc(O)cc2)c1 (stereo not drawn) [1k]
PKCl % inhibn at 20 μM [1]: 13.9% | NF-κB reporter gene assay % inhibin at 5 μM [2]: 73.7%

SMILES: CC(C)(C)C1=NN(c2ccc(Br)cc2)C(c2ccc(O)cc2)C1 (stereo not drawn) [1c]
NF-κB reporter gene assay % inhibin at 5 μM [2]: 58.4%

SMILES: O=C(O)/C=C(/CCc1ccc(F)cc1)c1ccccc1 [Compound 4Z]
Amax [6]: 3.3 fold

SMILES: CC(C)(C)C1=NN(c2cccc(C(F)(F)F)c2)C(c2ccc(O)cc2)C1 (stereo not drawn) [1j]
PKCl % inhibn at 20 μM [1]: 17.0% | NF-κB reporter gene assay % inhibin at 5 μM [2]: 89.7% | IC50 ([2]; read-out: NF-κB reporter gene assay IC50 ± SD): 2.7 ± 0.32 µM

SMILES: CC(C)(C)c1ccc(-n2c(-c3cccnc3N)nc3cc(Br)cnc32)cc1 [Compound 3g]
IC50 [8]: > 300 µM | Akt1 ΔTm [4]: 0.9 °C

SMILES: O=C(NOC[C@H](O)CO)c1ccc(F)c(F)c1Nc1ccc(I)cc1F [Mirdametinib]
Sol (pH 6.5): 190 μg/mL

SMILES: O=C(O)/C=C(\CCc1ccc(F)cc1)c1ccccc1 [Compound 4E]
AC50 [6]: n.e. | Amax [6]: n.e.

SMILES: CC(C)(C)C1=NN(c2ccccc2F)C(c2ccc(O)cc2)C1 (stereo not drawn) [1m]
NF-κB reporter gene assay % inhibin at 5 μM [2]: 48.7% | cell-free assay % inhibin at 62.5 μM [3]: 57.6%

SMILES: Cc1ccc(N2N=C(C(C)(C)C)CC2c2ccc(O)cc2)cc1 (stereo not drawn) [1e]
NF-κB reporter gene assay % inhibin at 5 μM [2]: 62.9%

Further lines, results first:

Akt1 ΔTm [4]: no shift
SMILES: NCc1ccc(-n2c(-c3cccnc3)nc3cccnc32)cc1 [Compound 5b]

Amax [6]: n.e.
SMILES: O=C(O)/C=C(\CCc1ccc(-c2ccccc2)cc1)c1ccccc1 [Compound 11E]

ITC Ka [7]: 7.18E4 — M^-1 | ITC TΔS [7]: 2.80 kcal/mol | ITC ΔG [7]: -6.56 kcal/mol | ITC ΔH [7]: -3.71 kcal/mol | ITC ΔH/ΔG [7]: 56.6% | Kd [7]: 13.9 µM | Amax [6]: 2.4 fold | AC50 ([6]; read-out: AC50): 2.8 µM
SMILES: O=C(O)/C=C(/CCc1ccc(Cl)c(Cl)c1)c1ccccc1 [Compound 7Z]

ITC Ka [7]: 9.66E4 — M^-1 | ITC TΔS [7]: 4.79 kcal/mol | ITC ΔG [7]: -6.73 kcal/mol | ITC ΔH [7]: -1.94 kcal/mol | ITC ΔH/ΔG [7]: 28.8% | Kd [7]: 10.4 µM | Amax [6]: 4.4 fold | AC50 ([6]; read-out: AC50): 7.1 µM
SMILES: O=C(O)/C=C(/CCc1ccc(C(F)(F)F)cc1)c1ccccc1 [Compound 6Z]

Akt1 ΔTm [4]: 4.1 °C
SMILES: Nc1ccc(-n2c(-c3cccnc3N)nc3cccnc32)cc1 [Compound 5d]

Akt1 ΔTm [4]: 3.7 °C
SMILES: CC(=O)Nc1ccc(-n2c(-c3cccnc3N)nc3cccnc32)cc1 [Compound 5c]

ITC Ka [7]: 4.78E4 — M^-1 | ITC TΔS [7]: 3.20 kcal/mol | ITC ΔG [7]: -6.32 kcal/mol | ITC ΔH [7]: -3.07 kcal/mol | ITC ΔH/ΔG [7]: 48.6% | Amax [6]: 3.9 fold
SMILES: O=C(O)/C=C(/CCc1ccc(Br)cc1)c1ccccc1 [Compound 5Z]
